Measurements: patent US11458225B2, “3D vascularized human ocular tissue for cell therapy and drug discovery” (THE UNITED STATES OF AMERICA, as represented by the …, priority 2016, dated 2022)
“Also recorded” adds a separate entry of the source.

Assays:
[1] = test system: RPE-“choroid” tissues; assay: Hypoxia disease model: DMOG treatment of bioprinted RPE-"choroid" tissue, confocal imaging; format: cell-based, human; conditions: two weeks of treatment
Description: FIGS. 18A-18I are digital images showing the effect of hypoxia on “choriocapillaris.” RPE-“choroid” tissues were treated with DMOG (100 μM) after 4 weeks from printing. DMOG inhibits prolyl-4-hydroxylase and induces hypoxia-inducible factor. DMOG was treated on only apical region of RPE or on both apical region of RPE and “choroid” sides. After two weeks of DMOG treatment, tissues were fixed in 4% PFA. Z-stack confocal images were separated into three sections as RPE (A-C), subRPE/scaffold (D-F), and “choroid” (G-I). RPE was recognized by Hoescht (nuclei). Choroid was stained with CD31. Scale bar=100 μm.
It was tested if hypoxic condition of RPE or RPE-“choroid” plays a role in “choroidal” neovascularization. Hypoxia has been reported as a crucial factor to induce wet AMD. A chemical compound, DMOG, was used to induce hypoxia-inducible factor in RPE or every cell type within the tissue.

[2] = test system: 3D vascularized tissue containing GFP positive primary endothelial cells, pericytes, and fibroblasts; conditions: a week of VEGF treatment (85 ng/ml) vs 3 days then basal 1.7 ng/ml
Description: (A) 8 bit images of printed GFP endothelial cells (white) were quantified. Five line probes were placed in each gap between stripes of the printed geometry. Each line probe detects peaks (hollow circles) of GFP intensity above a threshold. Line 1 and 6, 2 and 5, 3 and 4 indicate edge, intermediate, and center of each gap, respectively. (B) Two experimental groups are compared. […] Angiogenesis was quantified as a number of GFP peaks in each line probe. The quantification of angiogenesis was performed between groups and time frames of G (n=5; number of printings). Error bars indicates standard error and mean. Two-way ANOVA and Bonferroni post-hoc pair comparison. † indicates statistical significance (p<0.05) between groups (left figure) and day 5-6 and day 7-8 (right figure). # and * indicates statistical significance (p<0.05) in day 3-4 vs. day 5-6 and day 3-4 vs. day 7-8, respectively.

Molecule | vascularization in sub-RPE region (CD31 stain) ([1]; DMOG 100 μM from 4 weeks after printing, on apical region of RPE only or on both RPE and “choroid” sides) | changes of the RPE monolayer ([1]; DMOG 100 μM, RPE recognized by Hoescht) | growth and viability of microvascular network [2]
COC(=O)CNC(=O)C(=O)OC [DMOG] | significantly induced vascularization in sub-RPE region; also recorded: induced vascularization in the subRPE region | did not show noticeable changes | –
VEGF | – | – | significantly enhanced growth and viability of microvascular network
